Laboratory results from the NIST ThermoML archive (doi:10.1016/j.jct.2019.06.027).
± gives the expanded uncertainty stated by the source.

Legend:
[1] = for surface tension liquid-gas: Maximal bubble pressure; for mass density: 101.33 kPa, Liquid, Vibrating tube method
[2] = refractive index (Na D-line) (dimensionless); details: 101.33 kPa, Liquid, Standard Abbe refractometry

SMILES | surface tension liquid-gas ([1]; 288.15 K) [mN/m] | mass density ([1]; 288.15 K) [kg/m3] | surface tension liquid-gas ([1]; 293.15 K) [mN/m] | mass density ([1]; 293.15 K) [kg/m3] | surface tension liquid-gas ([1]; 298.15 K) [mN/m] | mass density ([1]; 298.15 K) [kg/m3] | surface tension liquid-gas ([1]; 303.15 K) [mN/m] | mass density ([1]; 303.15 K) [kg/m3] | surface tension liquid-gas ([1]; 308.15 K) [mN/m] | mass density ([1]; 308.15 K) [kg/m3] | surface tension liquid-gas ([1]; 313.15 K) [mN/m] | mass density ([1]; 313.15 K) [kg/m3] | surface tension liquid-gas ([1]; 318.15 K) [mN/m] | mass density ([1]; 318.15 K) [kg/m3] | surface tension liquid-gas ([1]; 323.15 K) [mN/m] | mass density ([1]; 323.15 K) [kg/m3] | surface tension liquid-gas ([1]; 328.15 K) [mN/m] | mass density ([1]; 328.15 K) [kg/m3] | refractive index ([2]; 288.15 K) | refractive index ([2]; 293.15 K) | other results
CCOCCn1cc[n+](C)c1.[Br-] [1-(2-ethoxyethyl)-3-methylimidazolium bromide] | 50.9 ± 0.5 | 1360.32 ± 2.4 | 50.5 ± 0.5 | 1356.56 ± 2.4 | 50.2 ± 0.5 | 1352.79 ± 2.4 | 49.8 ± 0.5 | 1349.05 ± 2.4 | 49.5 ± 0.5 | 1345.33 ± 2.4 | 49.2 ± 0.5 | 1341.63 ± 2.4 | 48.9 ± 0.5 | 1337.99 ± 2.4 | 48.6 ± 0.5 | 1334.35 ± 2.4 | 48.3 ± 0.5 | 1330.24 ± 2.4 | 1.5473 ± 0.0031 | 1.5458 ± 0.0031 | refractive index ([2]; 298.15 K): 1.5441 ± 0.0031; refractive index ([2]; 303.15 K): 1.5426 ± 0.0031; refractive index ([2]; 308.15 K): 1.5409 ± 0.0031; refractive index ([2]; 313.15 K): 1.5391 ± 0.0031; refractive index ([2]; 318.15 K): 1.5376 ± 0.0031; refractive index ([2]; 323.15 K): 1.5357 ± 0.0031; refractive index ([2]; 328.15 K): 1.5341 ± 0.0031
CCOCCn1cc[n+](C)c1.[Cl-] [1-(2-ethoxyethyl)-3-methylimidazolium chloride] | 47.8 ± 0.5 | 1143.13 ± 2.3 | 47.3 ± 0.5 | 1139.98 ± 2.3 | 46.9 ± 0.5 | 1136.83 ± 2.3 | 46.5 ± 0.5 | 1133.69 ± 2.3 | 46 ± 0.5 | 1130.57 ± 2.3 | 45.6 ± 0.5 | 1127.45 ± 2.3 | 45.2 ± 0.5 | 1124.37 ± 2.3 | 44.8 ± 0.5 | 1121.28 ± 2.3 | 44.3 ± 0.5 | 1118.21 ± 2.3 | 1.5269 ± 0.0031 | 1.5255 ± 0.0031 | refractive index ([2]; 298.15 K): 1.524 ± 0.0031; refractive index ([2]; 303.15 K): 1.5225 ± 0.0031; refractive index ([2]; 308.15 K): 1.5206 ± 0.0031; refractive index ([2]; 313.15 K): 1.5184 ± 0.0031; refractive index ([2]; 318.15 K): 1.5159 ± 0.0031; refractive index ([2]; 323.15 K): 1.5142 ± 0.0031; refractive index ([2]; 328.15 K): 1.5119 ± 0.0031
COCCn1cc[n+](C)c1.[Cl-] [1-(2-methoxyethyl)-3-methylimidazolium chloride] | 49.6 ± 0.5 | 1168.6 ± 2.3 | 49.2 ± 0.5 | 1165.46 ± 2.3 | 48.7 ± 0.5 | 1162.31 ± 2.3 | 48.4 ± 0.5 | 1159.17 ± 2.3 | 48 ± 0.5 | 1156.04 ± 2.3 | 47.6 ± 0.5 | 1152.91 ± 2.3 | 47.1 ± 0.5 | 1149.78 ± 2.3 | 46.7 ± 0.5 | 1146.63 ± 2.3 | 46.2 ± 0.5 | 1143.27 ± 2.3 | 1.5201 ± 0.0031 | 1.5185 ± 0.0031 | refractive index ([2]; 298.15 K): 1.516 ± 0.0031; refractive index ([2]; 303.15 K): 1.5142 ± 0.0031; refractive index ([2]; 308.15 K): 1.5121 ± 0.0031; refractive index ([2]; 313.15 K): 1.5103 ± 0.0031; refractive index ([2]; 318.15 K): 1.5083 ± 0.0031; refractive index ([2]; 323.15 K): 1.5069 ± 0.0031; refractive index ([2]; 328.15 K): 1.5046 ± 0.0031
